Data as given in patent US12577242B2, “Pyrrolopyridine and imidazopyridine antiviral compounds” (KATHOLIEKE UNIVERSITEIT LEUVEN, priority 2020, dated 2026).

Tests used:
[1] = test system: Bovine viral diarrhea (BVD) virus; experiment: Anti-BVDV CPE inhibition assay in MDBK cells; conditions: for EC50: Bovine viral diarrhea virus isolates and strains, MDBK, in Bos taurus, 96 h; for SI (selectivity index, ratio of CC50 and EC50): CC50/EC50, MDBK cells, BVD virus
[2] = Cytotoxicity in MDBK cells (no BVD virus added); conditions: bovine, MDBK cells (Madin-Darby bovine kidney), no virus added

OCc1ccc2nc(Cn3ccc4nc(-c5ccccc5F)nc-4c3)sc2c1 [CPD-27, (2-((2-(2-fluorophenyl)-5H-imidazo[4,5-c]pyridin-5-yl)methyl)benzo[d]thiazol-6-yl)methanol]
EC50 [1]: 366 nM
SI (selectivity index, ratio of CC50 and EC50) [1]: >137
CC50 at 4 days [2]: > 50000 nM

Fc1ccccc1-c1nc2ccn(Cc3ncc(-c4ccccc4)s3)cc-2n1 [CPD-28, 2-((2-(2-fluorophenyl)-5H-imidazo[4,5-c]pyridin-5-yl)methyl)-5-phenylthiazole]
EC50 [1]: 82 nM
SI (selectivity index, ratio of CC50 and EC50) [1]: >610
CC50 at 4 days [2]: > 50000 nM

Fc1ccccc1-c1nc2ccn(Cc3ccc(Cl)s3)cc-2n1 [CPD-30, 5-((5-chlorothiophen-2-yl)methyl)-2-(2-fluorophenyl)-5H-imidazo[4,5-c]pyridine]
EC50 [1]: 129 ± 61 nM
SI (selectivity index, ratio of CC50 and EC50) [1]: >388
CC50 at 4 days [2]: > 50000 nM

Cc1ccc2oc(Cn3ccc4nc(-c5ccccc5F)nc-4c3)nc2c1 [CPD-31, 2-((2-(2-fluorophenyl)-5H-imidazo[4,5-c]pyridin-5-yl)methyl)-5-methylbenzo[d]oxazole]
EC50 [1]: 306 ± 98 nM
SI (selectivity index, ratio of CC50 and EC50) [1]: >163
CC50 at 4 days [2]: > 50000 nM

Cc1ccc2nc(Cn3ccc4nc(-c5ccccc5F)nc-4c3)oc2c1 [CPD-32, 2-((2-(2-fluorophenyl)-5H-imidazo[4,5-c]pyridin-5-yl)methyl)-6-methylbenzo[d]oxazole]
EC50 [1]: 377 ± 16 nM
SI (selectivity index, ratio of CC50 and EC50) [1]: >133
CC50 at 4 days [2]: > 50000 nM

COc1ccc2oc(Cn3ccc4nc(-c5ccccc5F)nc-4c3)nc2c1 [CPD-33, 2-((2-(2-fluorophenyl)-5H-imidazo[4,5-c]pyridin-5-yl)methyl)-5-methoxybenzo[d]oxazole]
EC50 [1]: 447 nM
SI (selectivity index, ratio of CC50 and EC50) [1]: >112
CC50 at 4 days [2]: > 50000 nM

Fc1ccc(-c2cc(Cn3ccc4nc(-c5ccccc5F)nc-4c3)on2)c(F)c1 [CPD-34, 3-(2,4-difluorophenyl)-5-((2-(2-fluorophenyl)-5H-imidazo[4,5-c]pyridin-5-yl)methyl)isoxazole]
EC50 [1]: 92 ± 49 nM
SI (selectivity index, ratio of CC50 and EC50) [1]: >543
CC50 at 4 days [2]: > 50000 nM

Fc1ccc(F)c(-c2cc(Cn3ccc4nc(-c5ccccc5F)nc-4c3)on2)c1 [CPD-35, 3-(2,5-difluorophenyl)-5-((2-(2-fluorophenyl)-5H-imidazo[4,5-c]pyridin-5-yl)methyl)isoxazole]
EC50 [1]: 75 ± 24 nM
SI (selectivity index, ratio of CC50 and EC50) [1]: >667
CC50 at 4 days [2]: > 50000 nM

Cc1ccc2nc(Cn3ccc4nc(-c5ccccc5F)nc-4c3)[nH]c2c1 [CPD-36, 2-(2-fluorophenyl)-5-((6-methyl-1H-benzo[d]imidazol-2-yl)methyl)-5H-imidazo[4,5-c]pyridine]
EC50 [1]: 403 ± 129 nM
SI (selectivity index, ratio of CC50 and EC50) [1]: >124
CC50 at 4 days [2]: > 50000 nM

Fc1ccc2nc(Cn3ccc4nc(-c5ccccc5F)nc-4c3)[nH]c2c1 [CPD-37, 5-((6-fluoro-1H-benzo[d]imidazol-2-yl)methyl)-2-(2-fluorophenyl)-5H-imidazo[4,5-c]pyridine]
EC50 [1]: 370 ± 74 nM
SI (selectivity index, ratio of CC50 and EC50) [1]: >135
CC50 at 4 days [2]: > 50000 nM

Fc1ccccc1-c1nc2ccn(Cn3nnc4ccccc43)cc-2n1 [CPD-38, 1-((2-(2-fluorophenyl)-5H-imidazo[4,5-c]pyridin-5-yl)methyl)-1H-benzo[d][1,2,3]triazole]
EC50 [1]: 336 ± 103 nM
SI (selectivity index, ratio of CC50 and EC50) [1]: >149
CC50 at 4 days [2]: > 50000 nM

Fc1cccc(-c2nc3ccn(Cc4cc(-c5cc(F)ccc5F)no4)cc-3n2)c1 [CPD-39, 3-(2,5-difluorophenyl)-5-((2-(3-fluorophenyl)-5H-imidazo[4,5-c]pyridin-5-yl)methyl)isoxazole]
EC50 [1]: 84 ± 8 nM
SI (selectivity index, ratio of CC50 and EC50) [1]: >595
CC50 at 4 days [2]: > 50000 nM

Cc1ccc2nc(Cn3ccc4nc(-c5cc(OCCO)ccc5F)nc-4c3)sc2c1 [CPD-41, 2-(4-fluoro-3-(5-((6-methylbenzo[d]thiazol-2-yl)methyl)-5H-imidazo[4,5-c]pyridin-2-yl)phenoxy)ethan-1-ol]
EC50 [1]: 223 ± 143 nM
SI (selectivity index, ratio of CC50 and EC50) [1]: >224
CC50 at 4 days [2]: > 50000 nM

OCCOc1ccc(F)c(-c2nc3ccn(Cc4cc(-c5cc(F)ccc5F)no4)cc-3n2)c1 [CPD-42, 2-(3-(5-((3-(2,5-difluorophenyl)isoxazol-5-yl)methyl)-5H-imidazo[4,5-c]pyridin-2-yl)-4-fluorophenoxy)ethan-1-ol]
EC50 [1]: 460 ± 48 nM
SI (selectivity index, ratio of CC50 and EC50) [1]: >109
CC50 at 4 days [2]: > 50000 nM

N#Cc1ccc(-c2nc3ccn(Cc4cc(-c5cc(F)ccc5F)no4)cc-3n2)cc1 [CPD-43, 4-(5-((3-(2,5-difluorophenyl)isoxazol-5-yl)methyl)-5H-imidazo[4,5-c]pyridin-2-yl)benzonitrile]
EC50 [1]: 81 ± 8 nM
SI (selectivity index, ratio of CC50 and EC50) [1]: >617
CC50 at 4 days [2]: > 50000 nM

CN(C)c1cccc(-c2nc3ccn(Cc4cc(-c5cc(F)ccc5F)no4)cc-3n2)c1 [CPD-44, 3-(5-((3-(2,5-difluorophenyl)isoxazol-5-yl)methyl)-5H-imidazo[4,5-c]pyridin-2-yl)-N,N-dimethylaniline]
EC50 [1]: 88 ± 17 nM
SI (selectivity index, ratio of CC50 and EC50) [1]: >568
CC50 at 4 days [2]: > 50000 nM

Cc1ccc2nc(Cn3ccc4nc(-c5ccccc5CO)nc-4c3)sc2c1 [CPD-45, (2-(5-((6-methylbenzo[d]thiazol-2-yl)methyl)-5H-imidazo[4,5-c]pyridin-2-yl)phenyl)methanol]
EC50 [1]: 297 ± 107 nM
SI (selectivity index, ratio of CC50 and EC50) [1]: >168
CC50 at 4 days [2]: > 50000 nM

OCc1ccccc1-c1nc2ccn(Cc3cc(-c4cc(F)ccc4F)no3)cc-2n1 [CPD-46, (2-(5-((3-(2,5-difluorophenyl)isoxazol-5-yl)methyl)-5H-imidazo[4,5-c]pyridin-2-yl)phenyl)methanol]
EC50 [1]: 465 ± 26 nM
SI (selectivity index, ratio of CC50 and EC50) [1]: >108
CC50 at 4 days [2]: > 50000 nM

Cc1ccc(-c2nc3ccn(Cc4cc(-c5cc(F)ccc5F)no4)cc-3n2)s1 [CPD-47, 3-(2,5-difluorophenyl)-5-((2-(5-methylthiophen-2-yl)-5H-imidazo[4,5-c]pyridin-5-yl)methyl)isoxazole]
EC50 [1]: 341 ± 25 nM
SI (selectivity index, ratio of CC50 and EC50) [1]: 70
CC50 at 4 days [2]: 24000 nM

Cc1cc(-c2nc3ccn(Cc4cc(-c5cc(F)ccc5F)no4)cc-3n2)cs1 [CPD-48, 3-(2,5-difluorophenyl)-5-((2-(5-methylthiophen-3-yl)-5H-imidazo[4,5-c]pyridin-5-yl)methyl)isoxazole]
EC50 [1]: 395 ± 22 nM
SI (selectivity index, ratio of CC50 and EC50) [1]: 68
CC50 at 4 days [2]: 27000 nM

Cc1scc(-c2nc3ccn(Cc4cc(-c5cc(F)ccc5F)no4)cc-3n2)c1C [CPD-49, 3-(2,5-difluorophenyl)-5-((2-(4,5-dimethylthiophen-3-yl)-5H-imidazo[4,5-c]pyridin-5-yl)methyl)isoxazole]
EC50 [1]: 409 nM
SI (selectivity index, ratio of CC50 and EC50) [1]: 76
CC50 at 4 days [2]: 31000 nM

Fc1ccc(OC(F)(F)F)cc1-c1cc2ccn(Cn3nnc4ccccc43)cc-2n1 [Compound II, 1-({2-[2-fluoro-5-(trifluoromethoxy)phenyl]-6H-pyrrolo[2,3-c]pyridin-6-yl}methyl)-1H-benzotriazole]
EC50 [1]: 23 nM
SI (selectivity index, ratio of CC50 and EC50) [1]: 870
CC50 at 4 days [2]: 20000 nM

OCCOc1ccc(F)c(-c2cc3ccn(Cn4nnc5ccccc54)cc-3n2)c1 [Compound III, 2-(3-{6-[(1H-benzotriazol-1-yl)methyl]-6H-pyrrolo[2,3-c]pyridin-2-yl}-4-fluorophenoxy)ethan-1-ol]
EC50 [1]: 19 ± 7 nM
SI (selectivity index, ratio of CC50 and EC50) [1]: 1158
CC50 at 4 days [2]: 22000 nM

COc1ccccc1-c1cc2ccn(Cn3nnc4ccccc43)cc-2n1 [Compound IV, 1-{[2-(2-methoxyphenyl)-6H-pyrrolo[2,3-c]pyridin-6-yl]methyl}-1H-benzotriazole]
EC50 [1]: 8 ± 5 nM
SI (selectivity index, ratio of CC50 and EC50) [1]: 2750
CC50 at 4 days [2]: 22000 nM

Cc1ccc2oc(Cn3ccc4cc(-c5ccccc5F)nc-4c3)nc2c1 [Compound IX, 2-{[2-(2-fluorophenyl)-6H-pyrrolo[2,3-c]pyridin-6-yl]methyl}-5-methyl-1,3-benzoxazole]
EC50 [1]: 1.2 ± 1.5 nM
SI (selectivity index, ratio of CC50 and EC50) [1]: 4167
CC50 at 4 days [2]: 5000 nM

N#Cc1ccc(-c2cc3ccn(Cn4nnc5ccccc54)cc-3n2)cc1 [Compound VI, 4-{6-[(1H-benzotriazol-1-yl)methyl]-6H-pyrrolo[2,3-c]pyridin-2-yl}benzonitrile]
EC50 [1]: 16 nM
SI (selectivity index, ratio of CC50 and EC50) [1]: >3125
CC50 at 4 days [2]: > 50000 nM

COc1ncccc1-c1cc2ccn(Cn3nnc4ccccc43)cc-2n1 [Compound VII, 1-{[2-(2-methoxypyridin-3-yl)-6H-pyrrolo[2,3-c]pyridin-6-yl]methyl}-1H-benzotriazole]
EC50 [1]: 16 ± 1 nM
SI (selectivity index, ratio of CC50 and EC50) [1]: 1375
CC50 at 4 days [2]: 22000 nM

Cc1c(-c2cc3ccn(Cn4nnc5ccccc54)cc-3n2)cnn1C [Compound VIII, 1-[(2-(1,5-dimethyl-1H-pyrazol-4-yl)-6H-pyrrolo[2,3-c]pyridin-6-yl)methyl]-1H-benzotriazole]
EC50 [1]: 335 ± 80 nM
SI (selectivity index, ratio of CC50 and EC50) [1]: >149
CC50 at 4 days [2]: > 50000 nM

COc1ncccc1-c1cc2ccn(Cc3nc4cc(C)ccc4o3)cc-2n1 [Compound X, 2-((2-(2-methoxypyridin-3-yl)-6H-pyrrolo[2,3-c]pyridin-6-yl)methyl)-5-methyl-1,3-benzoxazole]
EC50 [1]: 7 ± 4 nM
SI (selectivity index, ratio of CC50 and EC50) [1]: 571
CC50 at 4 days [2]: 4000 nM

Cc1ccc2nc(Cn3ccc4cc(-c5ccccc5F)nc-4c3)sc2c1 [Compound XI, 2-{[2-(2-fluorophenyl)-6H-pyrrolo[2,3-c]pyridin-6-yl]methyl}-6-methyl-1,3-benzothiazole]
EC50 [1]: 8 nM
SI (selectivity index, ratio of CC50 and EC50) [1]: 500
CC50 at 4 days [2]: 4000 nM
